Data set [1] relates to Plasmodium falciparum. The data set can be described thus: NOVARTIS: Inhibition of Plasmodium falciparum 3D7 (drug-susceptible) proliferation in erythrocyte-based infection assay. The data set is classed as functional, organism-based. Particulars: Plasmodium falciparum, 3D7.
The subject of data set [2] is Plasmodium falciparum. As to the kind of experiment: NOVARTIS: Inhibition of Plasmodium falciparum W2 (drug-resistant) proliferation in erythrocyte-based infection assay. The format is functional, organism-based. Conditions: Plasmodium falciparum, W2; read-out: EC50.
Data set [3] can be described thus: NOVARTIS: Cytotoxicity against human hepatocellular carcinoma cell line (Huh7). Particulars: Huh7 cells (hepatocellular carcinoma cell line). The format is toxicity, cell-based, Huh-7.

Where only a bound is given, the exact number is not on record here.

Broadly, the EC50 is the concentration giving half of the maximal effect. The term CC50 denotes the concentration that lowers cell viability or growth by half. A low value points to greater toxicity to the cells.

For `CC=C[C@H]1O[C@@](O)([C@@H](C)C(O)C(C)[C@H]2OC(=O)C(OC)=CC(C)=C[C@@H](C)[C@@H](O)[C@@H](C)[C@@H](O)C(C)CC(C)=CC=C[C@@H]2OC)C[C@@H](O[C@H]2C[C@@H](O)[C@H](OC(N)=O)[C@@H](C)O2)[C@@H]1C` (stereo partly specified), the 50% effective concentration (EC50) in data set [1] is greater than 1.67 µM; in data set [2], 0.24 µM. The CC50 in data set [3] was greater than 10 µM.
For `CN1CCN(c2ccc(Nc3ccnc4ccccc34)cc2)CC1` the same measures were 0.22 µM, 0.237 µM and greater than 10 µM.
For `FC(F)(F)c1cccc(-c2cc(NCCCn3ccnc3)nc(-c3ccncc3)n2)c1` the same measures were 0.204 µM, 0.186 µM and greater than 7.72 µM.
For `Nc1ccc(-c2nc3cc(-c4ccc5[nH]c(-c6ccc(N)cc6)nc5c4)ccc3[nH]2)cc1` the same measures were 0.579 µM, 0.234 µM and greater than 10 µM.
For the molecule `CC(=O)CSc1nnc(-c2ccncc2)n1C`, the figures for the EC50 in data set [1] and in data set [2] were greater than 1.25 µM and 0.31 µM, respectively. Besides, the CC50 in data set [3] is greater than 12.7 µM.
The like results for `O=C(O)Cn1cnc2nc3n(c2c1=O)CCC3` were, in that order, greater than 10.4 µM, 2.42 µM and greater than 100 µM.
The like results for `Oc1cccc(Nc2nc(NCc3ccco3)c3ccccc3n2)c1` were, in that order, 0.275 µM, 0.279 µM and 11.5 µM.
On to `N=c1n(CCN2CCCC2)c2ccccc2n1CC(O)c1ccc(Cl)c(Cl)c1` (stereo unspecified), for which the EC50 turned out to be 0.083 µM in data set [1] and 0.257 µM in data set [2]. Besides, the CC50 in data set [3] is 10.9 µM.
The like results for `O=C(NC(c1ccccc1)c1ccccc1)N(Cc1ccccc1)CC(O)CN(CCN1CCOCC1)S(=O)(=O)Cc1ccccc1` (stereo unspecified) were, in that order, 0.115 µM, 0.162 µM and greater than 6.82 µM.
For `CCOC(=O)NN=CC=NNC(=O)OCC` the same measures were 0.199 µM, 0.235 µM and greater than 10 µM.
For `CCC(c1nc2ccccc2c(=O)n1-c1ccc(Cl)cc1C)N(CCc1ccccc1)C(=O)c1cccc(OC)c1` (stereo unspecified) the same measures were 0.519 µM, 0.232 µM and greater than 10 µM.
With `CCC(SC1=Nc2ccccc2C2=NC(C(C)C)C(=O)N12)C(=O)Nc1cccc(C)c1` (stereo unspecified), the 50% effective concentration (EC50) was found to be 7.02 µM in data set [1] and 2.4 µM in data set [2]. Also, the CC50 in data set [3] was greater than 100 µM.
The like results for `Cc1cc(O)ccc1-c1cnc2ccccc2n1` were, in that order, greater than 0.541 µM, 0.241 µM and greater than 10 µM.
The like results for `O=C1CC(c2nc3ccccc3n2CCCOc2ccccc2)CN1c1ccc(F)cc1` (stereo unspecified) were, in that order, greater than 0.882 µM, 0.239 µM and greater than 10 µM.
As to `N#Cc1ccccc1Cn1nc(-c2cccnc2)oc1=O`, the EC50 in data set [1] was greater than 12.5 µM; in data set [2], 2.38 µM. For the same molecule, in data set [3], the 50% cytotoxic concentration (CC50) was greater than 100 µM.
As to `COC(=O)c1cnn(-c2ccccc2)c1C=NOC(=O)c1ccccc1`, the figures for the EC50 in data set [1] and in data set [2] were greater than 5.29 µM and 2.38 µM, respectively. Besides, the CC50 in data set [3] was greater than 100 µM.
For `CCN(c1ccccc1)S(=O)(=O)c1ccc(F)c(C(=O)Nc2c(C)cccc2C)c1`, the EC50 was greater than 12.5 µM in data set [1] and 2.45 µM in data set [2]. Also, in data set [3], the cytotoxic concentration (CC50) is greater than 100 µM.
For `CSc1nnc(CCNC(=O)c2c(-c3ccccc3)noc2C)n1-c1ccc(F)cc1` the same measures were greater than 12.5 µM, 2.41 µM and greater than 100 µM.
With `Cc1nc(NN=Cc2ccccc2O)cc(N2CCCCC2)n1`, the EC50 stood at 1.08 µM in data set [1] and 0.237 µM in data set [2]. Moreover, the CC50 in data set [3] is greater than 10 µM.
For `COC(=O)C1=CN(Cc2ccc(Cl)cc2)C=C(C(=O)OC)C1c1ccc(Cl)c(Cl)c1` the same measures were greater than 8.19 µM, 2.36 µM and greater than 100 µM.
Take `COc1ccc(-n2nc(C(=O)NCC(=O)NCCCN3CC(C)CC(C)C3)c3ccccc3c2=O)cc1Cl` (stereo unspecified): the EC50 in data set [1] was greater than 7.36 µM; in data set [2], 1.87 µM. This molecule registered a CC50 in data set [3] of 76.4 µM.
The like results for `Brc1ccc(-c2n(Cc3ccccc3)c3ccccc3[n+]2Cc2ccccc2)o1` were, in that order, 0.167 µM, 0.26 µM and 11 µM.
For `Cc1ccc(-c2nc(CS(=O)(=O)CC(=O)NC3CCC(C)CC3)c(C)o2)cc1` (stereo unspecified) the same measures were greater than 1.25 µM, greater than 0.244 µM and greater than 10 µM.
As to `CCCCN1C=Nc2cc(C(=O)NCc3ccc(OC)cc3)ccc2C1`, the EC50 in data set [1] was determined as 0.463 µM; in data set [2], 0.243 µM. Moreover, the half-maximal cytotoxic concentration (CC50) in data set [3] was greater than 10 µM.
On to `Clc1ccccc1-c1nc([P+](c2ccccc2)(c2ccccc2)c2ccccc2)c(N2CCOCC2)o1`, for which the EC50 turned out to be 0.35 µM in data set [1] and 0.238 µM in data set [2]. The molecule further gave a cytotoxic concentration (CC50) in data set [3] of 10.1 µM.
The like results for `CN(c1ccccc1)S(=O)(=O)c1ccc(C(=O)Nc2ccc(-c3nc4ccccc4[nH]3)cc2)cc1` were, in that order, 0.788 µM, 1.04 µM and 42.8 µM.
For `COc1cc(OC)cc(-n2nc(C(=O)NCCCN3CC(C)CC(C)C3)c3ccccc3c2=O)c1` (stereo unspecified) the same measures were greater than 12.5 µM, 2.44 µM and greater than 100 µM.
As to `COc1ccc(S(=O)(=O)Nc2ccc(N3CCC(Cc4ccccc4)CC3)c(C(=O)NC(C)C)c2)cc1`, the EC50 in data set [1] worked out at 2.12 µM; in data set [2], 2.43 µM. In data set [3], this molecule displayed a CC50 greater than 100 µM.
The like results for `Cc1ccc(N2CCN(CCNCc3ccc(F)cc3)[C@@H](Cc3ccc(O)cc3)C2)cc1` were, in that order, 0.443 µM, 0.24 µM and greater than 10 µM.
For `Cc1oc(-c2cccs2)nc1CN1CCC(CO)(CCOc2ccccc2)CC1` the same measures were 8.47 µM, 2.35 µM and greater than 100 µM.
The like results for `O=C(Nc1ccc(C2=NCCN2)c(Cl)c1)c1ccc(C(=O)Nc2ccc(C3=NCCN3)c(Cl)c2)cc1` were, in that order, 0.554 µM, 0.234 µM and greater than 10 µM.
On to `Cc1ccc(-c2c[n+](Cc3cccc(C)c3)c3n2CCC3)cc1`, for which the EC50 in data set [1] came out at 0.568 µM; in data set [2] it was 0.493 µM. The CC50 in data set [3] was 20.6 µM.
Consider `O=c1ccc2cc(Cl)c(O)c(Cl)c2o1`, for which the EC50 is greater than 1.25 µM in data set [1] and greater than 0.234 µM in data set [2]. In data set [3], this molecule came in with a CC50 greater than 10 µM.
With `CCCCCCCCCC[n+]1c(C)n(CC)c2cc(Cl)c(Cl)cc21`, the values for the EC50 in data set [1] and in data set [2] were 0.613 µM and 0.49 µM, respectively. The same molecule gave a CC50 in data set [3] of 21 µM.
The like results for `COC(=O)C1=CNC=C(C(=O)OC)C1c1cc(OC)c(OC)cc1OC` were, in that order, greater than 1.35 µM, 0.245 µM and greater than 10 µM.
Take `COc1cccc(NCC(O)Cn2c3ccc(Cl)cc3c3cc(Cl)ccc32)c1` (stereo unspecified): the EC50 was found to be 2.13 µM in data set [1] and 1.19 µM in data set [2]. The same molecule registered a CC50 in data set [3] of 51.3 µM.
For `COc1ccc(-c2c[n+](CC(=O)O[C@H]3C[C@H](C)CC[C@@H]3C(C)C)c3n2CCCCC3)cc1` the same measures were 0.45 µM, 0.404 µM and 16.5 µM.
Take `CCOc1ccccc1-n1c(C(C)N(Cc2ccccc2)C(=O)Nc2cccc3ccccc23)nc2ccccc2c1=O` (stereo unspecified): the EC50 in data set [1] was 0.855 µM; in data set [2], 0.242 µM. For the same molecule, the CC50 in data set [3] is greater than 10 µM.
The like results for `Cc1c(C(=O)Nc2ccccc2)sc2ncn(Cc3ccccc3Cl)c(=O)c12` were, in that order, 5.4 µM, 2.42 µM and greater than 100 µM.
The like results for `CCCOc1ccc(NC(=O)c2ccco2)cc1` were, in that order, 1.15 µM, 0.406 µM and 16.9 µM.
With `CC[C@@]1(O)C[C@H](O[C@@H]2CC(N(C)C)[C@@H](O[C@@H]3C[C@@H](O)[C@@H](O[C@@H]4CCC(=O)[C@@H](C)O4)C(C)O3)[C@@H](C)O2)c2c(cc3c(c2O)C(=O)c2c(O)ccc(O)c2C3=O)[C@H]1C(=O)OC` (stereo partly specified), the EC50 worked out at 0.0877 µM in data set [1] and 0.0792 µM in data set [2]. This molecule showed a CC50 in data set [3] of 3.37 µM.
The like results for `O=C(Nc1ccccc1O)c1ccc(C(=O)N(C2CCCCC2)C2CCCCC2)cc1` were, in that order, 1.47 µM, greater than 2.45 µM and greater than 100 µM.
The like results for `COc1ccc(/C=C(/C#N)C(=O)Nc2cccc3ccccc23)cc1` were, in that order, greater than 1.16 µM, greater than 0.241 µM and greater than 10 µM.
For `COc1ccccc1N1C(=N)SC(=Cc2ccc(N(C)C)cc2)C1=O`, the figures for the EC50 in data set [1] and in data set [2] were 0.101 µM and 0.0525 µM, respectively. The same molecule had a CC50 in data set [3] of 2.21 µM.
For `CC(C)CC(=O)Nc1nnc(-c2ccc(Br)cc2)s1` the same measures were greater than 9.04 µM, 2.33 µM and greater than 100 µM.
For `Cn1nc(-c2ccccc2)c2c(C(=O)C(F)(F)F)cc(C(=O)C(F)(F)F)c-2c1-c1ccccc1` the same measures were 8.23 µM, 2.33 µM and greater than 100 µM.
For `CCCCOc1ccc(NC2=NC3(CCCC3)NC(N)=N2)cc1` the same measures were 1.09 µM, 2.33 µM and greater than 100 µM.
Take `CCN1/C(=C/C2=CC(=C/c3sc4ccccc4[n+]3CC)/CC(C)(C)C2)C=Cc2ccccc21`: the EC50 came to 0.486 µM in data set [1] and 1.03 µM in data set [2]. Moreover, the CC50 in data set [3] is 42.2 µM.
For `CCN(CC)CCNc1nc2cc(OC)c(OC)cc2c2nc(-c3ccccc3)nn12` the same measures were 1.67 µM, 1.8 µM and 77.2 µM.
For `CN(C)c1ccc(N=Cc2ccc(N3CCOCC3)cc2)cc1` the same measures were 0.175 µM, 0.235 µM and greater than 10 µM.
As for `CCn1ncc(CN2CCC(C(=O)Nc3ccccc3-c3cccc(OC)c3)CC2)c1C`, the 50% effective concentration (EC50) is greater than 12.5 µM in data set [1] and 1.16 µM in data set [2]. This molecule had a CC50 in data set [3] of 47.6 µM.
In the case of `COc1ccc(/C=C2\SC(=Nc3ccccc3)NC2=O)cc1`, the EC50 in data set [1] was 0.342 µM; in data set [2], 0.233 µM. The molecule further showed a half-maximal cytotoxic concentration (CC50) in data set [3] greater than 10 µM.

For the origin of these results see ChEMBL document CHEMBL1156829 (Proc Natl Acad Sci U S A, 2008).
